Measurements taken from patent US9938335B2, “Glucagon and GLP-1 co-agonist compounds” (Eli Lilly and Company, priority 2015, dated 2018).
≈ marks a conversion by molar mass, not a printed value. Where “and” joins values, the source holds several entries; their conditions need not be identical. Identical values can stand only once. Like-named read-outs stand apart in the source and are kept apart here.

Columns and labels:
[1] = molecular target: T1, rat GLP-1-R (Rattus norvegicus, UniProt P32301); experiment: Functional activation of the rat GLP-1-R in insulinoma cell line INS1 832-3 (cAMP); format: cell-based
T1 construct: stimulating cAMP production at the endogenous GLP-1 receptors; endogenous in cells; host or cells: INS1 832-3 rat insulinoma cells
T1 sequence (P32301 22-463): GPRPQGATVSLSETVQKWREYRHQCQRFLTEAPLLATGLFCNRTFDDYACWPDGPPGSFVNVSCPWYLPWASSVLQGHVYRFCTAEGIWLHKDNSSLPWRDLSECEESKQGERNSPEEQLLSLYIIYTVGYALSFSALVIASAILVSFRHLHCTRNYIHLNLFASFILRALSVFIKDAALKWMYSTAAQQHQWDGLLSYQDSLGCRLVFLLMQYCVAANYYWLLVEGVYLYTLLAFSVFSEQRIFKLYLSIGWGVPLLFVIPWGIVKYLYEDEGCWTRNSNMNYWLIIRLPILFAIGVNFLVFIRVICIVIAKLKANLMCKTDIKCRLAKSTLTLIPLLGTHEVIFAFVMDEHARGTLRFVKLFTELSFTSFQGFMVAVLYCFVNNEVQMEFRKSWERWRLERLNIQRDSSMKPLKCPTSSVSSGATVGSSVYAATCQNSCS
Method: Performance of the assay requires detachment of the cells from culture flasks using Enzyme Free Cell Stripper and pelleted by centrifugation at 1000 rpm for 5 minutes at room temperature. […] After 2 hours starvation, cells are treated with compound by adding 10 μl of 5× compound dilutions into the cell plates (n=2) and incubated in a 37° C., 5% CO2 incubator for 30 minutes.
cAMP concentration is measured using a HTRF cAMP assay kit (Cisbio): cAMP-d2 conjugate in cell lysis buffer (20 μl) followed by the antibody anti-cAMP-Eu^3+-Cryptate, also in cell lysis buffer (20 μl), is added to the cells of the plate.
The assay is performed with duplicated plates.

[2] = molecular target: T2, Human Gcg-R (Homo sapiens, UniProt P47871); experiment: Functional hGcg-R assay (cAMP HTRF, HEK-293 clonal cell line); format: cell-based; conditions: cAMP, 60 minute incubation, 0.25% FBS, 0.05% BSA; geometric mean; read-out: Human Gcg-R EC50, nM ± SEM, (n)
T2 construct: expressed in transfected cells; host or cells: HEK-293 clonal cell line over-expressing the receptor
T2 sequence (P47871 26-477): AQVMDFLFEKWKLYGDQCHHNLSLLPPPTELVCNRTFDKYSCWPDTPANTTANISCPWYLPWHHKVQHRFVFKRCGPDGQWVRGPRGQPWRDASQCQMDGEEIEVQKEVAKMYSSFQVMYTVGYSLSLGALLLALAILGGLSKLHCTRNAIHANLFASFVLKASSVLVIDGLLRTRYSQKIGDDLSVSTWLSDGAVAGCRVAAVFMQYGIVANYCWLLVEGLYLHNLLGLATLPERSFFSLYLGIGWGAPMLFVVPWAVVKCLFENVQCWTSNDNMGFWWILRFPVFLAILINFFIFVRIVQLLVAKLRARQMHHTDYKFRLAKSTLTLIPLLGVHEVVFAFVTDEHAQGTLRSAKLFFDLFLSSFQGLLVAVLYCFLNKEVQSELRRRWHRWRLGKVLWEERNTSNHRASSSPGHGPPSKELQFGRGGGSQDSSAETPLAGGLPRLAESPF
Method: After a 60 minute incubation at room temperature, the resulting increase in intracellular cAMP (adenosine 3′,5′-cyclic monophosphate) is quantitatively determined using the CisBio cAMP Dynamic 2 HTRF Assay Kit (62AM4PEJ). cAMP levels within the cell are detected by adding the cAMP-d2 conjugate in cell lysis buffer (20 μl) followed by the antibody anti-cAMP-Eu^3+-Cryptate, also in cell lysis buffer (20 μl).
A relative EC50 value and percent top (Emax) are derived by non-linear regression analysis using the percent maximal response vs. the concentration of peptide added, fitted to a four-parameter logistic equation (Genedata Screener®).
Means for EC50 are expressed as Geometric means±standard error of the mean (SEM) with the number of replicates (n) indicated in parenthesis. Means for Emax are expressed as the arithmetic mean±standard error. ND signifies that agonist activity was not detected.

[3] = system: DIO mice (C57BL/6); experiment: Effects on energy expenditure in DIO mice (indirect calorimetry); format: in vivo, mouse; conditions: for Cumulative Heat (Kcal/kg lean mass/3 day): test article 15 nmol/kg, semaglutide 60 nmol/kg sc every three days
Method: Seven to eight months old male DIO mice (C57BL/6) weighing 45-50 g are used in this study to assess the effect of compounds of the present invention on energy metabolism. Animals are individually housed in a temperature-controlled (24° C.) facility with a 12 hour light/dark cycle (lights on 22:00), and free access to food (TD95217)(Teklad) and water. After 2 weeks acclimation to the facility, mice are randomized to treatment groups (N=6/group) based on body weight so each group has similar starting mean body weight. Animals are placed in a PhenoMaster/LabMaster calorimeter (TSE Systems, Chesterfield, Mo.) for 8 days of acclimation.
Heat and […] (RER) are measured by indirect calorimetry as described using an open-circuit calorimetry system. RER is the ratio of the volume of CO2 produced (VCO2) to the volume of O2 consumed (VO2). Heat is calculated with lean body weight considered. The energy expenditure is kcal/kg/3 day and expressed as mean±SEM of 6 mice per group. Statistical significance is assessed by two-way ANOVA followed by Tukey's multiple comparison test.

[4] = Pharmacokinetics in cynomolgus monkeys; format: in vivo; conditions: for Cmax: read-out: C0 or Cmax
Method: The compounds are administered by a single intravenous or subcutaneous dose of 50 nmole/kg or 250 nmole/kg.
The plasma concentrations of compounds are determined by a LC/MS method. Briefly, a compound of the present invention is extracted from 100% monkey plasma (25 μl) using acetonitrile. Two distinct layers are formed upon centrifugation with the compound located in the liquid layer. An 80 μl aliquot of the supernatant was transferred to a 96-well plate, diluted with 150 μl of water and 25 μl of formic acid. The diluted sample (10 μl) was injected onto a Supelco Analytical Discovery BIO Wide Pore C5-3, 5 cm×1 mm, 3 um column. The column effluent is directed into a Thermo Q-Exactive mass spectrometer for detection and quantitation.

[5] = Solubility (RP-HPLC and HPLC-SEC, 1 week at 4° C.); format: physicochemical
[6] = Table 9: single IV 50 nmol/kg, individual animals
[7] = Table 9: single SC 50 nmol/kg, individual animals
[8] = Table 9: single SC 250 nmol/kg, individual animals
[9] = male, cynomolgus monkey, plasma, iv, 50 nmol/kg, Table 9: single IV 50 nmol/kg, mean
[10] = male, cynomolgus monkey, plasma, sc, 50 nmol/kg, Table 9: single SC 50 nmol/kg, individual animals
[11] = male, cynomolgus monkey, plasma, sc, 50 nmol/kg, Table 9: single SC 50 nmol/kg, mean
[12] = male, cynomolgus monkey, plasma, sc, 250 nmol/kg, Table 9: single SC 250 nmol/kg, individual animals
[13] = male, cynomolgus monkey, plasma, sc, 250 nmol/kg, Table 9: single SC 250 nmol/kg, mean

Compound: CC(C)C[C@H](NC(=O)[C@H](CC(C)C)NC(=O)[C@H](Cc1c[nH]c2ccccc12)NC(=O)[C@H](CCC(=O)O)NC(=O)[C@@H](NC(=O)[C@H](Cc1ccccc1)NC(=O)[C@H](CCC(=O)O)NC(=O)[C@H](CCCCNC(=O)COCCOCCNC(=O)COCCOCCNC(=O)CC[C@H](NC(=O)CCCCCCCCCCCCCCCCCCC(=O)O)C(=O)O)NC(=O)[C@H](C)NC(=O)[C@H](CCCCN)NC(=O)[C@H](CCCCN)NC(=O)[C@H](CCC(=O)O)NC(=O)[C@H](CC(=O)O)NC(=O)[C@H](CC(C)C)NC(=O)[C@H](Cc1ccc(O)cc1)NC(=O)[C@H](CCCCN)NC(=O)[C@H](CO)NC(=O)[C@H](Cc1ccc(O)cc1)NC(=O)[C@H](CC(=O)O)NC(=O)[C@H](CO)NC(=O)[C@@H](NC(=O)[C@H](Cc1ccccc1)NC(=O)[C@@H](NC(=O)CNC(=O)[C@H](CCC(N)=O)NC(=O)C(C)(C)NC(=O)[C@@H](N)Cc1c[nH]cn1)[C@@H](C)O)[C@@H](C)O)C(C)C)C(=O)N[C@@H](CCC(=O)O)C(=O)NCC(=O)NCC(=O)N1CCC[C@H]1C(=O)N[C@@H](CO)C(=O)N[C@@H](CO)C(=O)NCC(N)=O [Compound 2]
- EC50 ([1]; INS1 832-3 cells, cAMP, 30 minutes): 62 nM
- cAMP production ([1]; INS1 832-3 cells, data not shown): increased cAMP production in a dose-dependent manner
- Emax ([1]; INS1, percent of maximal response with native GLP-1 peptide at 300 nM): 104%
- EC50 [2]: 26.5 ± 2.2 nM
- metabolic rate ([3]; DIO mice, chronic treatment): increased their metabolic rate starting from Week 2
- Cumulative Heat (Kcal/kg lean mass/3 day) ([3]; Day 1 to Day 4): 1746 ± 96 Kcal/kg lean mass/3 day
- Cumulative Heat (Kcal/kg lean mass/3 day) ([3]; Day 4 to Day 7): 1778 ± 132 Kcal/kg lean mass/3 day
- Cumulative Heat (Kcal/kg lean mass/3 day) ([3]; Day 7 to Day 10): 2549 ± 129 Kcal/kg lean mass/3 day
- Cumulative Heat (Kcal/kg lean mass/3 day) ([3]; Day 10 to Day 13): 2568 ± 147 Kcal/kg lean mass/3 day
- AUC(0-inf) [4, 6]: 93.174 µM·h
- CL/F [4, 6]: 12.7 mL/day/kg and 13 mL/day/kg
- Cmax [4, 6]: 1100 nM
- T1/2 ([4]; Table 9: single IV 50 nmol/kg, male cynomolgus monkeys, individual animals): 131 h
- CL/F ([4]; Table 9: single IV 50 nmol/kg, mean): 12.7 mL/day/kg
- AUC(0-inf) [4, 7]: 82.792 µM·h
- CL/F [4, 7]: 14.4 mL/day/kg
- T1/2 [4, 7]: 106 h
- Cmax [4, 7]: 452 nM
- AUC(0-inf) [4, 8]: 540.175 µM·h
- CL/F [4, 8]: 11 mL/day/kg
- T1/2 [4, 8]: 104 h
- Cmax [4, 8]: 3620 nM
- AUC(0-inf) ([4]; cynomolgus monkey, plasma, sc, 250 nmol/kg, Table 9: single SC 250 nmol/kg, mean, read-out: AUC0-inf): 485 µM·h
- CL/F ([4]; cynomolgus monkey, plasma, sc, 250 nmol/kg, Table 9: single SC 250 nmol/kg, mean, read-out: CL/F (converted)): 12.5 mL/day/kg
- AUC(0-inf) ([4]; male, cynomolgus monkey, plasma, iv, 50 nmol/kg, Table 9: single IV 50 nmol/kg, individual animals, read-out: AUC0-inf): 94.8 µM·h
- Cmax ([4]; male, cynomolgus monkey, plasma, iv, 50 nmol/kg, Table 9: single IV 50 nmol/kg, individual animals): 1020 nM
- half-life ([4]; male, cynomolgus monkey, plasma, iv, 50 nmol/kg, Table 9: single IV 50 nmol/kg, male cynomolgus monkeys, individual animals): 88 h
- half-life [4, 9]: 110 h
- AUC(0-inf) ([4]; male, cynomolgus monkey, plasma, iv, 50 nmol/kg, Table 9: single IV 50 nmol/kg, mean, read-out: AUC0-inf): 94 µM·h
- Cmax [4, 9]: 1060 nM
- Tmax [4, 10]: 24 h
- half-life [4, 10]: 137 h
- AUC(0-inf) ([4]; male, cynomolgus monkey, plasma, sc, 50 nmol/kg, Table 9: single SC 50 nmol/kg, individual animals, read-out: AUC0-inf): 101 µM·h
- Cmax [4, 10]: 474 nM
- CL/F ([4]; male, cynomolgus monkey, plasma, sc, 50 nmol/kg, Table 9: single SC 50 nmol/kg, individual animals, read-out: CL/F (converted)): 12 mL/day/kg
- Tmax [4, 11]: ~24 h
- half-life [4, 11]: 122 h
- AUC(0-inf) ([4]; male, cynomolgus monkey, plasma, sc, 50 nmol/kg, Table 9: single SC 50 nmol/kg, mean, read-out: AUC0-inf): 91.9 µM·h
- Cmax [4, 11]: 463 nM
- CL/F ([4]; male, cynomolgus monkey, plasma, sc, 50 nmol/kg, Table 9: single SC 50 nmol/kg, mean, read-out: CL/F (converted)): 13.2 mL/day/kg
- Tmax [4, 12]: 12 h
- half-life [4, 12]: 115 h
- AUC(0-inf) ([4]; male, cynomolgus monkey, plasma, sc, 250 nmol/kg, Table 9: single SC 250 nmol/kg, individual animals, read-out: AUC0-inf): 430 µM·h
- Cmax [4, 12]: 3640 nM
- CL/F ([4]; male, cynomolgus monkey, plasma, sc, 250 nmol/kg, Table 9: single SC 250 nmol/kg, individual animals, read-out: CL/F (converted)): 13.9 mL/day/kg
- Tmax [4, 13]: 12 h
- half-life [4, 13]: 110 h
- Cmax [4, 13]: 3630 nM
- solubility at 1 week ([5]; 10 mM Tris pH 8.0 + 3 mg/mL m-cresol + 0.02% Tween-20, Tris pH 8 + 3 mg/mL m-cresol + 0.02% Tween-20): 10000 µg/mL
- solubility at 1 week ([5]; 10 mM Tris pH 8.0 + 3 mg/mL m-cresol + 150 mM NaCl, Tris pH 8 + 3 mg/mL m-cresol + 150 mm NaCl): 10000 µg/mL
- solubility at 1 week ([5]; 10 mM Tris pH 8.0 + 3 mg/mL m-cresol, Tris pH 8 + 3 mg/mL m-cresol): 10000 µg/mL
- HMW species formation by SEC-HPLC ([5]; 1 week at 4° C.): No observed HMW species formation by SEC-HPLC;
- solubility at 1 week ([5]; PBS pH 7.4, pH 7.4, read-out: solubility in PBS, pH 7.4): 10000 µg/mL (≈ 2190 µM)
- visible precipitation or phase separation ([5]; after 1 week storage at 4° C.): No visible precipitation or phase separation observed after 1 week
